Reference: patent publication US11938125B2, “Use of Hsp70 as a regulator of enzymatic activity” (Zevra Denmark A/S, priority 2008, dated 2024)
Entries after “also recorded” stand apart in the source; their conditions may differ.

What was measured:
HSPs, including Hsp70 = conditions: cited from earlier work
[1] = test system: lysosomes of U-2-OS cells; test: Lysosomal integrity upon photo-oxidation (acridine orange and blue light); assay type: cell-based, human; conditions: for protection of lysosomes against photo-oxidation (lysosomal integrity): U-2-OS cells, recombinant protein 300 nM, 24 h
Procedure: Sub-confluent U-2-OS cells incubated with 2 μg/ml acridine orange for 15 min at 37° C. were washed, irradiated and analyzed in Hanks balanced salt solution complemented with 3% FCS. Cells for single cell imaging were selected from 8 pre-defined areas of each well in transmitted light-mode after which the same cells were immediately visualized and exposed to blue light from USH102 100 W mercury arc burner (Ushio electric) installed in a U-ULS100HG housing (Olympus) for 20 sec. Fluorescence microscopy was performed on Olympus IX-70 inverted microscope with a LCPlanF1×20 objective with NA=0.40. Loss of lysosomal pH gradient was quantified by counting the loss of intense red staining.
(§1) Assays for lysosomal integrity. Sub-confluent cells incubated with 2 μg/ml acridine orange for 15 min at 37° C. were washed, irradiated and analyzed in Hanks balanced salt solution complemented with 3% fetal calf serum. Cells for single cell imaging were selected from 8 pre-defined areas of each well in transmitted light-mode after which the same cells were immediately visualized and exposed to blue light from USH102 100 W mercury arc burner (Ushio electric) installed in a U-ULS100HG housing (Olympus) for 20 sec. Fluorescence microscopy was performed on Olympus IX-70 inverted microscope with a LCPlanF1×20 objective with NA=0.40. Loss of lysosomal pH gradient was quantified by counting the loss of intense red staining. A more elaborate method for assaying lysosomal integrity was developed to handle the larger lysosomal compartment of the various fibroblasts used in this study. Cells for single cell imaging were selected from 8 pre-defined areas of each well in transmitted light-mode after which the same cells were immediately and continuously exposed to 489 nm light from a 100 mW diode laser while laser scanning micrographs where captured every 330 ms on a Zeiss LSM LIVE DUO confocal system in two channels defined by bandpass filters for 495-555 nm (green) and LP650 nm (Red) light. The resulting timelapse movies where subsequently analysed by the integrated Zeiss LSM DUO software. The total and cytoplasmic (digitonin-extracted) cathepsin activities were measured in digitonin-treated samples using zFR-AFC (Enzyme System Products) probe as described in the art.

POPC/BMP liposomes = test: Tryptophan fluorescence shift upon docking into POPC/BMP liposomes; assay type: binding; conditions: pH 6.0
Procedure: (§2) The tryptophan fluorescence spectra (RFI) and liposome 900 light scattering (RSI) were analyzed in a HEPES buffer (20 mM HEPES, 0.1 mM EDTA, pH 7.4 or 6.0 as indicated) employing LUVs consisting of indicated lipids essentially as described previously. For the RFI, LUVs were added in 10 μM aliquots and spectra recorded after a 20 min stabilization period. For the RSI, recombinant proteins were added in 0.12 nmol aliquots.
as §2, with “Tryptophan fluorescence spectra and liposome 90° light scattering. The” for “The”, “in the art.” for “previously.”

BMP = test: BIAcore surface plasmon resonance with immobilized BMP-containing LUVs; assay type: binding; conditions: pH 4.5, L1 sensor chip
Procedure: (§3) For preparation of LUVs a lipid mixture consisting of 10 mol % sphingomyelin, 50 mol % phosphatidylcholine, 20 mol % cholesterol and 20 mol % BMP dissolved in organic solvents, was dried under a stream of argon and rehydrated in Tris/HCl buffer (pH 7.4) (Kolzer et al., 2004). The mixture was freeze-thawed nine times in liquid nitrogen and then in an incubator at 37° C. After ultrasound bath for 15 min the mixture was passed 21 times through a polycarbonate membrane with a pore diameter of 100 nm. Surface plasmon resonance measurements were performed using a BIAcore 2000 system at 25° C. LUVs (total lipid concentration 0.1 mM) were immobilized on the surface of a L1 sensor chip (BIAcore) in PBS (loading buffer). The running buffer used was sodium acetate buffer (50 mM, pH 4.5). As a control, acid sphingomyelinase (0.2 μM, 60 μl in running buffer) was injected directly on the liposome surface. Response units between 4100 RU-5250RU were obtained. The protein of interest was injected in running buffer at a flow rate of 20 μl/min at the concentrations indicated. After injection a dissociation phase of 10 min was appended.
as §3, with “Surface Plasmon Resonance (BIAcore). For” for “For”, “7.4).” for “7.4) (Kolzer et al., 2004).”, “The protein of interest was injected in running buffer at a flow rate of 20 μl/min at the concentrations indicated. After injection a dissociation phase of 10 min was appended.” left out

[2] = test system: U-2-OS osteosarcoma cells; test: Cisplatin-induced apoptosis-like cell death (Hoechst 33342); assay type: cell-based, human; conditions: for protection of cells against cisplatin-induced lysosomal cell death: recombinant protein 300 nM 24 h, 25 μM cisplatin 24 h
Procedure: (§4) Apoptosis-like cell death was assessed by staining the cells with 0.05 μg/ml Hoechst 33342 (Molecular Probes) and counting cells with condensed nuclei in an inverted Olympus IX-70 fluorescent Microscope (Filter U-MWU 330-385 nm). For each experiment a minimum of eight randomly chosen areas were counted.
as §4, with “Assays for cell viability. Cell density was assessed by the 3-(4,5-dimethylthiazole-2-y)-2,5-[…] (MTT, SIGMA-Aldrich) reduction assay essentially as described in the art. Apoptosis-like” for “Apoptosis-like”

NPDA fibroblasts = test: Lysosomal area of confocal cross sections, NPDA fibroblasts; assay type: cell-based, human; conditions: for pathology measured by lysosomal cross-sectional area: NPDA Götz cells, 40 mM
Excerpt: Immunodetection and microscopy. Primary antibodies used included mouse monoclonal antibodies against Hsp70 (2H9; kindly provided by Boris Margulis, Russian Academy of Sciences, St. Petersburg, Russia), glyceraldehyde-3-phosphate dehydrogenase (GAPDH; Biogenesis), BMP (6C4), lysosomal integral membrane protein-1 (H5C6; developed by J. Thomas August and James E. K. Hildreth and obtained from the Developmental Studies Hybridoma Bank developed under the auspices of the NICHD and maintained by The University of Iowa, Department of Biological Sciences, Iowa City, USA). Proteins separated by 10% SDS-PAGE and transferred to a nitrocellulose membrane were detected by using indicated primary antibodies, appropriate peroxidase-conjugated secondary antibodies from Dako, ECL Western blotting reagents (Amersham), and Luminescent Image Reader (LAS-1000Plus, Fujifilm). For immunocytochemistry Alexa […] or Alexa Fluor®-488-conjugated secondary antibodies were used. Lysotracker Red® was used for live visualization of the lysosomal compartment. Fluorescence images were taken using a Zeiss Axiovert 100M laser scanning microscope. Lysotracker quantification and timelapse movies for lysosomal integrity were done on a Zeiss LSM LIVE DUO system.

[3] = Folding and chaperone function of rHsp70 mutant (circular dichroism, luciferase folding, ATP hydrolysis); assay type: biochemical
[4] = test system: lysosomes of NPDA patient fibroblasts; test: Lysosomal stability of NPDA fibroblasts (photo-oxidation, live single-cell imaging); assay type: cell-based, human; conditions: NPDA Götz cells, 40 mM
Procedure: as §1

Hsp70 = Hsp70 protein expression by western blotting in NPDA cells; assay type: cell-based, human; conditions: NPDA Götz cells, 0, 20, 30, 35, 40, 45 mM
Procedure: It is shown in Examples 2 and 3 that Hsp70 has a lysosome stabilizing effect via an interaction with BMP. In order to evaluate if this effect is also observed when exposing cells to a chemical Hsp70 inducer, Niemann-Pick Type A (NPDA) patient fibroblasts were treated with the small molecule Hsp70 inducer; Benzyl Alcohol (BA). First, NPDA cells were treated with increasing doses of BA (0, 20, 30, 35, 40, 45 mM), lysed, and analysed by western blotting. The same amount of protein was loaded in each well. […] Next, the stability of NPDA Götz lysosomes after treatment with 40 mM BA was evaluated, using the same methods as described in Example 2. […] Finally, the lysosomal cross-sectional area in NPDA Götz cells after treatment with 40 mM BA was evaluated, using the same methods as described in Example 2.

[O-][n+]1cccc(/C(Cl)=N/OC[C@H](O)CN2CCCCC2)c1 [Arimoclomol]
induction or co-induction of HSPs / heat shock response (HSPs, including Hsp70): interacts with and amplifies the heat shock response

Hsc70: recombinant Hsc70, 86% amino acid sequence homology with Hsp70
protection of lysosomes against photo-oxidation (lysosomal integrity) [1]: no protection; also recorded: no lysosomal stabilization

Hsp70-2: recombinant Hsp70-2, 84% amino acid sequence homology with Hsp70
protection of lysosomes against photo-oxidation (lysosomal integrity) [1]: no protection; also recorded: no lysosomal stabilization

O=C(O)/C=C\C(=O)O.OC(CON=C(Cl)c1cccnc1)CN1CCCCC1 (centres unmarked) [Bimoclomol, [2-hydroxy-3-(1-piperidinyl)propoxy]-3-pyridine-carboximidoyl-chloride maleate]
induction or co-induction of HSPs / heat shock response (HSPs, including Hsp70): capability of Hsp70 co-induction in the absence of unfolded proteins

rHsp70-W580F: rHsp70 point mutant, tryptophan 580 substituted with phenylalanine
protection of lysosomes against photo-oxidation (lysosomal integrity) [1]: same efficacy as the wild-type protein; also recorded: same protective effect as the wild-type protein
relative peak fluorescence intensity (tryptophan fluorescence shift) (POPC/BMP liposomes): unchanged signal
interaction with BMP-containing LUVs (BIAcore) (BMP): essentially the same interaction profile as rHsp70
protection of cells against cisplatin-induced lysosomal cell death [2]: same efficacy as the wild-type protein; also recorded: same protective effect as the wild-type protein

[O-][n+]1cccc(C(Cl)=NOC[C@H](O)CN2CCCCC2)c1 [BRX-345]
induction or co-induction of HSPs / heat shock response (HSPs, including Hsp70): somewhat lesser ability to induce HSPs

rHsp70-W90F: rHsp70 point mutant, tryptophan 90 substituted with phenylalanine
protection of lysosomes against photo-oxidation (lysosomal integrity) [1]: completely lost its ability to protect the lysosomal membranes against photo-oxidation
relative peak fluorescence intensity (tryptophan fluorescence shift) (POPC/BMP liposomes): reduction of the signal
interaction with BMP-containing LUVs (BIAcore) (BMP): dramatically decreased; also recorded: specifically abolished the interaction between rHsp70 and BMP
protection of cells against cisplatin-induced lysosomal cell death [2]: completely lost its ability
lysosomal area / volume of the lysosomal compartment (NPDA fibroblasts; NPDA fibroblasts, 24 h, 300 nM rHsp70 or W90F, 150 nM rASM or combination): effect comparable to control cells
luciferase folding and ATP hydrolysis [3]: capable of folding luciferase and hydrolyzing ATP

N.N.[Cl][Pt][Cl] [cisplatin, reference compound]
lysosomal membrane permeabilization ([2]; U-2-OS cells): induces an early lysosomal membrane permeabilization

5′-GCCAUGACGAAAGACAACAAUCUGU-3′ (other strand not given here) [Hsp70 siRNA, siRNA targeting the two genes encoding Hsp70, reference compound]
sensitization of lysosomes to photo-oxidation by siRNA ([1]; U-2-OS cells, siRNA 48 h; listed as siRNA) specific for Hsp70): sensitized lysosomes of U-2-OS cells to photo-oxidation; also recorded: sensitized the lysosomes to photo-oxidation

OCc1ccccc1 [Benzyl Alcohol]
stability of lysosomes [4]: Increased stability of NPDA Götz lysosomes
stability of lysosomes ([4]; listed as BA): increased lysosomal stability
pathology measured by lysosomal cross-sectional area (NPDA fibroblasts): Decreased pathology
pathology measured by lysosomal cross-sectional area (NPDA fibroblasts; listed as BA): decreased pathology
Hsp70 protein expression (Hsp70): Induction of Hsp70 in NPDA Götz by Benzyl alcohol in a dose-dependent manner
Hsp70 protein expression (Hsp70; listed as BA): induced Hsp70 expression in a dose-dependent manner
